The values that follow come from US8017350B2, “Glimepiride- and insulin-induced glycosylphosphatidylinositol-specific phospholipase C regulation” (Sanofi-Aventis Deutschland GmbH, priority 2004, dated 2011).

Test [1] relates to GPI-PLC, intact rat adipocytes. Description: GPI-PLC activity in intact rat adipocytes (amphiphilic-to-hydrophilic conversion of endogenous 5'-Nuc, Gce1, aP). It counts as cell-based. On the procedure: Adipocytes isolated by digestion from epididymal fat pads of male rats (120-140 g, fed ad libitum, see Ref. 53 [Muller et al.; Mol. Cell. Biol. 21:[…] (2001)]) were washed twice in KRH (20 mM Hepes/KOH, pH 7.4, 1.2 mM KH2PO4, 140 mM NaCl, 4.7 mM KCl, 2.5 mM CaCl2, 1.2 mM MgSO4) containing 1% (w/v) BSA and then incubated in the same medium supplemented with 100 μg/ml gentamycin, 100 nM 1-methyl-2-phenylethyladenosine, 0.5 U/ml adenosine deaminase, 1 mM sodium pyruvate and 5 mM D-glucose in the absence or presence of GPI-2350 (prepared as 10 mM stock solution in DMSO, the final DMSO concentration in the in vitro and adipocyte incubations was kept constant at 0.5% at any inhibitor concentration), insulin or glimepiride (prepared as described in “Müller et al. (1994) J. Cell. Biol. 126:1267-1276”) at 37° C. in a shaking water bath at constant bubbling with 5% CO2/95% O2 at a final titer of 100 μl of packed cell volume per ml incubation volume (determined by aspiration of small aliquots into capillary hematocrit tubes and centrifugation for 60 s [seconds] in a microhematocrit centrifuge in order to determine the fractional occupation of the suspension by the adipocytes; 10% cytocrit corresponds to about 1.5×10^6 cells/ml) for the periods indicated. […]

Test [2] concerns GPI-anchored and acylated signaling proteins (pp59Lyn, Gce1, 5'-Nuc, aP) in DIGs of rat adipocytes. Description: Redistribution of pp59Lyn, Gce1, 5'-Nuc and aP from hcDIGs to lcDIGs in rat adipocytes. It counts as cell-based. Particulars: GPI-2350 50 μM; Tab. 2.
The target in the next test is T1, rat serum GPI-PLD (Rattus norvegicus, UniProt Q8R2H5).
T1 construct: GPI-PLD (rat serum) was assayed according to; from tissue; host or cells: rat serum
T1 sequence (Q8R2H5 24-843): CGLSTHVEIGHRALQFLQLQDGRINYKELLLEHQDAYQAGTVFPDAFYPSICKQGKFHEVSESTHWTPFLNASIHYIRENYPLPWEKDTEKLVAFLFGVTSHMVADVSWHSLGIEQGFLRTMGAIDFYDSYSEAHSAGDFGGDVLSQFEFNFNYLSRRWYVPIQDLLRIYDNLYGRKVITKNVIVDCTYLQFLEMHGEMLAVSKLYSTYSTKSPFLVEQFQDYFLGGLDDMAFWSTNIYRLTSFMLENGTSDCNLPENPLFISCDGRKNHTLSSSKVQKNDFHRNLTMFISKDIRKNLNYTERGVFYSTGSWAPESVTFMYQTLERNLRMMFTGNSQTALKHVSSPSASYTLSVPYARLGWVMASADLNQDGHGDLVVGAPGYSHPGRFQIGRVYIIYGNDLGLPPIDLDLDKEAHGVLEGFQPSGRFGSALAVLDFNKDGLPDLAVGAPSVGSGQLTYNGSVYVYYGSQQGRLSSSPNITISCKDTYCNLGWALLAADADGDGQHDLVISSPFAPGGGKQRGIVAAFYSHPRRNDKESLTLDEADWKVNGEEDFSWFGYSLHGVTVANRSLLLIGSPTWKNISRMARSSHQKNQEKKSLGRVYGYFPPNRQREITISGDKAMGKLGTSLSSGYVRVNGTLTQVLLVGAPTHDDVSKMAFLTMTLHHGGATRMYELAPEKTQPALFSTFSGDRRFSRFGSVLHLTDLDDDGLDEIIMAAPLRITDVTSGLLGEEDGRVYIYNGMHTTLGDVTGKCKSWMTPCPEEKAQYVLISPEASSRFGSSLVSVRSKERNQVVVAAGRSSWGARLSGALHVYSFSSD
Description: GPI-PLD (rat serum) assay, human placental aP substrate. The conditions noted are these: FIG. 2; read-out: apparent IC50. It counts as biochemical. On the procedure: GPI-PLD (rat serum) was assayed according to “Hari et al. (1997) Biochim. Biophys. Acta 1355: 293-302” by incubation with 10 μl of human placental aP solution (100 U/ml in 10 mM Hepes/NaOH, pH 7.0, 150 mM NaCl) in 100 μl of 200 mM Tris/maleate (pH 7.0) and 1% Nonidet P-40 for 10 min at 37° C. and subsequent termination of the reaction by addition of 0.4 ml of ice-cold stop buffer (10 mM Hepes/NaOH, pH 7.0, 150 mM NaCl, 0.1 mM MgCl2 and 0.01 mM zinc acetate). GPI-PLC (T. brucei) was assayed as described in “Mensa-Wilmot et al. (1995) Methods Enzymol. […]
Pelleted hc/lcDIGs (10-50 μg protein) or (G)PI-PLC reaction mixtures (0.5 ml) were separated into amphiphilic and hydrophilic proteins using partitioning between TX-114-enriched and depleted phases according to “Bordier, C., (1981) J. Biol, Chem. […]” by suspending in 1 ml of ice-cold TX-114 (1%), 25 mM Tris/HCl (pH 7.4), 144 mM NaCl or mixing with 0.5 ml of ice-cold TX-114 (2%), respectively. […] After re-extraction of the lower TX-114-enriched phase, aliquots of the pooled upper TX-114-depleted phase were measured for 5′-Nuc, aP and AChE activity or precipitated (15 polyethylene glycol 4000) for SDS-PAGE analysis.
FIG. 2: Potency of GPI-2350. […] The lipolytic activity was calculated as % of the control reaction in the absence of GPI-2350 (set at 100%). […]

As to `CCCCCCCCCCCCP1(=O)O[C@@H]2[C@H](O)[C@@H](O)[C@H](O)[C@@H](O)[C@@H]2O1` (stereo partly shown) [GPI-2350, myo-inositol-1,2-cyclo-dodecylphosphonic acid], the IC50 in test [1] (FIG. 8, read-out: concentration of half-maximal inhibition of the GPI-PLC) is 5000 nM; on rat serum GPI-PLD, 1000 nM. Also, the “reduction of basal and glimepiride-/insulin-stimulated GPI-PLC activity” value in test [1] (intact adipocytes, concentration-dependent) is “to lower than basal and similar levels”. Further, in test [2], the “effect on glimepiride-induced redistribution of 5'-Nuc, Gce1 and aP” value is recorded as “completely eliminated”.
